From the supplement of paper PMC13380429

Key:
Conditions in all cases: 72 h
[1] = test system: HepG2; assay: cell viability relative to DMSO; higher = less toxic
[2] = test system: Caco-2; assay: as above
[3] = test system: Vero E6; assay: as above
[4] = test system: U2OS; assay: as above
[5] = test system: Calu-3; assay: as above
[6] = test system: HepG2; assay: drug sensitivity score (DSS) for viability; higher = more toxic; extreme values may be limits of the assay
[7] = test system: Caco-2; assay: as above
[8] = test system: Vero E6; assay: as above
[9] = test system: U2OS; assay: as above
[10] = test system: Calu-3; assay: as above
[11] = test system: HepG2; assay: relative viability EC50 (midpoint between 100% and the lowest measured viability); higher = less toxic
[12] = test system: Caco-2; assay: as above
[13] = test system: Vero E6; assay: as above
[14] = test system: U2OS; assay: as above
[15] = test system: Calu-3; assay: as above

Structure (SMILES)	cell viability ([1]; 1 nM) [%]	cell viability ([1]; 10 nM) [%]	cell viability ([1]; 100 nM) [%]	cell viability ([1]; 1000 nM) [%]	cell viability ([1]; 10000 nM) [%]	cell viability ([2]; 1 nM) [%]	cell viability ([2]; 10 nM) [%]	cell viability ([2]; 100 nM) [%]	cell viability ([2]; 1000 nM) [%]	cell viability ([2]; 10000 nM) [%]	cell viability ([3]; 1 nM) [%]	cell viability ([3]; 10 nM) [%]	cell viability ([3]; 100 nM) [%]	cell viability ([3]; 1000 nM) [%]	cell viability ([3]; 10000 nM) [%]	cell viability ([4]; 1 nM) [%]	cell viability ([4]; 10 nM) [%]	cell viability ([4]; 100 nM) [%]	cell viability ([4]; 1000 nM) [%]	cell viability ([4]; 10000 nM) [%]	cell viability ([5]; 1 nM) [%]	cell viability ([5]; 10 nM) [%]	cell viability ([5]; 100 nM) [%]	cell viability ([5]; 1000 nM) [%]	cell viability ([5]; 10000 nM) [%]	drug sensitivity score [6]	drug sensitivity score [7]	drug sensitivity score [8]	drug sensitivity score [9]	drug sensitivity score [10]	relative viability EC50 [11] [µM]	relative viability EC50 [12] [µM]	relative viability EC50 [13] [µM]	relative viability EC50 [14] [µM]	relative viability EC50 [15] [µM]
O=C(O)c1ccccc1 [benzoic-acid]	101	95.6	104	92.4	96.3	99	101	95.9	98.7	98.7	97.1	97.6	100	97.7	102	98.9	102	99.1	98.2	95.9	99.4	101	96.8	99.2	92.6	0	0	0	0	0	> 10	> 10	> 10	> 10	> 10
CN[C@H](C(=O)N[C@H](C(=O)N(C)[C@H](/C=C(\C)C(=O)O)C(C)C)C(C)(C)C)C(C)(C)c1ccccc1 [taltobulin]	73.5	28.9	28.6	34.8	33.1	68.3	45.6	34.3	35	35.9	88.5	39.6	25.2	17.9	18.1	73.8	31.8	17.3	18.5	17.7	82.8	58.4	46.7	39.6	38.8	35	29.8	33.4	36.3	24.3	0.0012	0.0011	0.0044	0.0021	0.0037
NC1(C(=O)O)CC1 [ACPC]	103	98.9	90	99.5	93.4	92.3	98.6	104	87.7	105	102	96.9	96.7	94.5	98.4	93.8	96	95.9	96.3	98.1	98.6	93.4	93.1	102	96.8	0	0	0	0	0	> 10	> 10	> 10	> 10	> 10
O=C(c1ccc(F)cc1)C1CCN(CCCCc2ccccc2)CC1 [4-(4-fluorobenzoyl)-1-(4-phenylbutyl)-piperidine]	101	96	95.2	101	79.4	98.9	99.6	106	90.4	94.9	103	105	102	98.9	95.7	99.4	96.8	96.8	95.9	98.2	104	106	87.9	106	85.8	0.6	0	0	0	0.1	> 10	> 10	> 10	> 10	> 10
C/C(=C(\CCOP(=O)(O)O)SC(=O)c1ccccc1)N(C=O)Cc1cnc(C)nc1N [benfotiamine]	95.1	92.4	88.4	92.7	97	99.7	101	91	94.6	89.1	100	98.3	98.9	97.4	96.2	99.1	101	95.7	98.5	99.5	97.2	96.9	95.8	95.4	92.1	0	0	0	0	0	> 10	> 10	> 10	> 10	> 10
CCC(C)SSc1ncc[nH]1 (stereo not given) [PX-12]	99.3	104	104	98.3	89.8	90.8	100	102	93.1	97.7	96.7	97.8	103	97.5	99.8	98	96.4	103	97.5	84.1	106	98	110	84	104	0	0	0	0.6	0	> 10	> 10	> 10	> 10	> 10
OCc1cncc(F)c1 [5-fluoro-3-pyridyl-methanol]	106	104	109	97.2	102	96	106	102	107	106	104	104	102	98.8	105	98.4	105	98.4	104	97.8	101	97.2	95.1	99.3	99.9	0	0	0	0	0	> 10	> 10	> 10	> 10	> 10
Cc1cc2nc3c(=O)[nH]c(=O)nc-3n(C[C@H](O)[C@H](O)[C@H](O)COP(=O)(O)O)c2cc1C [riboflavin-5-phosphate-sodium]	97.8	104	101	98	108	97.8	104	103	100	90.3	101	102	97.2	95.7	97.2	102	97.9	94.4	98.2	91.9	91.4	102	92.7	104	99.8	0	0	0	0	0	> 10	> 10	> 10	> 10	> 10
CCCCc1nc2cc(/C=C/C(=O)NO)ccc2n1CCN(CC)CC [SB-939]	99.3	109	89	15.7	0	98	97.4	98	37.6	0.6	107	99.1	95.5	13.4	-0.1	101	105	83.9	27.9	1.1	95.4	89.6	65.5	30.7	7.8	16.8	12.9	16.3	15.5	17.6	0.362	0.766	0.417	0.425	0.195
Cc1ncc(OC[C@@]2(c3cccc(F)c3)C[C@H]2C(=O)Nc2ccc(F)cn2)c(C)n1 [lemborexant]	97.1	103	97.8	97.9	97.3	94.9	97.5	89.6	94.5	100	97.4	98.1	96.8	101	96.2	100	100	96	101	98.1	100	100	97.6	99.6	106	0	0	0	0	0	> 10	> 10	> 10	> 10	> 10
O=C1C(c2ccccn2)=[N+]([O-])c2ccccc21 [PIT]	99.8	103	96	91.8	97.9	104	95.1	92.7	92.1	109	102	102	97	97.6	97.5	97.6	100	99	95.3	101	95.2	106	94.7	93.9	102	0	0	0	0	0	> 10	> 10	> 10	> 10	> 10
CC1=C(/C=C/C(C)=C/C=C/C(C)=C/C=C/C=C(C)/C=C/C=C(C)/C=C/C2=C(C)CCCC2(C)C)C(C)(C)CCC1 [beta-carotene]	96.1	103	94.6	110	106	89.3	99.3	104	92.7	98.5	93.8	102	96.3	104	108	92.6	95.1	102	93.9	101	98.9	104	104	97.4	105	0	0	0	0	0	> 10	> 10	> 10	> 10	> 10
NC(=O)C1=CN([C@@H]2O[C@H](COP(=O)(O)OP(=O)(O)OC[C@H]3O[C@@H](n4cnc5c(N)ncnc54)[C@H](O)[C@@H]3O)[C@@H](O)[C@H]2O)C=CC1 [coenzyme-I]	93.3	103	89.4	111	90.2	103	94.2	88.7	98.7	108	93	96.4	89.3	97.2	105	103	97.5	101	95.9	113	91.4	92.2	100	93.2	97.3	0	0	0	0	0	> 10	> 10	> 10	> 10	> 10
N[C@@H](Cc1c[nH]c2ccc(O)cc12)C(=O)O [5-hydroxytryptophan]	102	97.4	105	106	94.9	93.3	94.5	92.5	88.8	103	98.4	95.7	100	92.3	95.5	100	97.3	99.6	94.2	96.6	93.6	94.7	94.1	94.4	107	0	0	0	0	0	> 10	> 10	> 10	> 10	> 10
